Source: the NIST ThermoML archive (doi:10.1021/je050021e)
± gives the expanded uncertainty stated by the source.

Tests used:
[1] = Liquid
[2] = xn = mol fraction of the nth substance listed; details: Liquid, x2 = 0

COCCOCCOCCOC [2,5,8,11-tetraoxadodecane]
[1]
Details	mass density, 303.15 K [kg/m3]	mass density, 313.15 K [kg/m3]	mass density, 323.15 K [kg/m3]	mass density, 333.15 K [kg/m3]	mass density, 343.15 K [kg/m3]	viscosity, 303.15 K [mPa·s]	viscosity, 313.15 K [mPa·s]	viscosity, 323.15 K [mPa·s]	viscosity, 333.15 K [mPa·s]	viscosity, 343.15 K [mPa·s]
101 kPa	–	–	–	–	–	1.77 ± 0.04	1.48 ± 0.04	1.26 ± 0.03	1.08 ± 0.03	0.945 ± 0.025
101.3 kPa	975.86 ± 1	966.36 ± 0.99	956.85 ± 0.98	947.32 ± 0.97	937.72 ± 0.96	–	–	–	–	–

CC(=O)N1CCOCC1 [4-acetylmorpholine]
[1], 101 kPa
Details	mass density [kg/m3]	viscosity [mPa·s]
298.15 K	1110.33 ± 0.61	8.48 ± 0.23
303.15 K	1106 ± 0.6	7.1 ± 0.2
313.15 K	1097.35 ± 0.6	5.18 ± 0.15
323.15 K	1088.74 ± 0.59	3.96 ± 0.12
333.15 K	1080.14 ± 0.59	3.12 ± 0.1
343.15 K	1071.55 ± 0.58	2.55 ± 0.08

O [water] + CC(=O)N1CCOCC1
[2], 101 kPa
Details	mass density [kg/m3]	viscosity [mPa·s]
298.15 K	–	0.8903 ± 0.029
303.15 K	–	0.7976 ± 0.026
313.15 K	–	0.6531 ± 0.022
323.15 K	988.04 ± 0.53	0.547 ± 0.019
333.15 K	983.12 ± 0.53	0.466 ± 0.017
343.15 K	977.77 ± 0.52	0.4049 ± 0.015

O [water] + COCCOCCOCCOC
[2]
Details	mass density, 323.15 K [kg/m3]	mass density, 333.15 K [kg/m3]	mass density, 343.15 K [kg/m3]	viscosity, 303.15 K [mPa·s]	viscosity, 313.15 K [mPa·s]	viscosity, 323.15 K [mPa·s]	viscosity, 333.15 K [mPa·s]	viscosity, 343.15 K [mPa·s]
101 kPa	–	–	–	0.89 ± 0.022	0.6531 ± 0.017	0.547 ± 0.015	0.466 ± 0.013	0.4049 ± 0.011
101.3 kPa	988.04 ± 0.09	983.12 ± 0.09	977.77 ± 0.09	–	–	–	–	–
